According to patent US8916607B2, “Use of piperphentonamine or salts thereof in manufacture of medicaments for treating brain diseases” (Guangzhou Municipal Zhongwei Biotechnology Limited Company, priority 2009, dated 2014):
Marks after values point to notes of the source that are not given here.

Assays:
[1] = tested on: cerebral hemorrhage in rats induced by collagenase; assay: ICH model induced by collagenase: NE in brain tissue by ELISA; format: in vivo, Wistar rats
Excerpt: (§1) Rats in each group were anesthetized by chloral hydrate, decollated rapidly and the brains were taken out. The brain tissue around the hole was cut and procured, weighed precisely, and made into a 10% tissue homogenate using a glass homogenizer in an ice bath environment with physiological saline as homogenized medium, the supernatant of which was taken to be determined the NE activity using ELISA method.

[2] = tested on: infective brain edema of rats (pertussis bacteria liquid); assay: infective cerebral edema: IL-1β, TNF-α (ELISA) and NO (Griess) in cerebral tissue; format: in vivo, SD rats; conditions: rat cerebral tissue, 4 h
Procedure: Determine the content of IL-1β, TNF-α and NO by using ELISA and Griess method.
Model preparation was same as that of example 4. Piperphentonamine acetate group was intraperitoneally injected with 0.5 mg/kg daily for 2 days 48 h before the injection of pertussis bacterial liquid. Rats in each group were decollated after being injected with bacterial liquid or saline 4 h. ELISA method and Griess method were used to measure the content of IL-1β, TNF-α and NO in brain homogenate of infectious brain edema model of rats.

[3] = tested on: human brain disease; assay: research in treating human brain diseases (no details); format: in vivo
[4] = tested on: cerebral hemorrhage in rats induced by collagenase; assay: ICH model induced by collagenase: brain water content (BWC); format: in vivo, Wistar rats
Procedure: Animals are randomly divided into five groups: sham operation 24 h group; cerebral hemorrhage (Intracerebral Haemorrhage, ICH)+physiological saline group (model); ICH+piperphentonamine hydrochloride (JBTA, 2 mg/kg) group, called as high dose group (h); ICH+piperphentonamine hydrochloride (JBTA, 0.5 mg/kg) group, called as low dose group (1); ICH+nimodipine (Nim, 0.5 mg/kg) group. The last four groups are divided into 4 h, 8 h, 12 h, 24 h as four time subgroups respectively. Physiological saline solution, piperphentonamine hydrochloride and nimodipine are intravenously injected from rat tail before the ICH model is established for 30 minutes, once a day. Injecting slowly, the total amount of drug liquid is controlled in 1 ml/200 g body weight: physiological saline solution also being administered in 1 ml/200 g body weight. Each group has 7 Wistar rats.
Observing the influence of piperphentonamine hydrochloride on the brain water content of intracerebral hemorrhage in rats in 4 h, 8 h, 12 h, 24 h, the animals of the different groups is anesthetized by chloral hydrate at predetermined time point, and decollating and taking the brain rapidly, putting the brain tissue on a filter paper wetted by saline solution to prevent water evaporating. Removing the leptomeninges and blood, cutting and taking the front half portion of brain tissue centered by the hole for the insertion needle, weighing precisely (accurate to 0.1 mg). It is controlled in 5 min to take the brain to finish weigh. Then putting in 95° C. constant temperature oven for 24 h, weighing the dry weight. The brain water content is calculated according to Blliot formula: BWC=(wet weight−dry weight)/wet weight×100%.
Divide the animals randomly into five groups: sham operation (sham) 24 h group; ICH+normal saline group (model); ICH+piperphentonamine maleate (4 mg/kg) group, namely high dose group (h); ICH+piperphentonamine maleate (2 mg/kg) group, namely low dose group (1); ICH+nimodipine (0.5 mg/kg) group. The last four groups were divided into four time subgroup of 4 h, 8 h, 12 h and 24 h. Physiological solution, piperphentonamine maleate and nimodipine were injected intravenous from rat tail vein 30 minutes before the ICH model made, once a day. Inject slowly, the total amount of drug liquid was controlled in 1 ml/200 g body weight: normal saline was also administered in 1 ml/200 g body weight. Each group has seven Wistar rats.

[5] = tested on: learning and memory dysfunction caused by cerebral ischemia reperfusion; assay: platform-diving experiment in dementia model of mice caused by ischemia reperfusion; format: in vivo, Kunming mice; conditions: for memory achievement Error times / Learning achievement Error times: in 5 min; for memory achievement Error times: test-retest period; for Learning achievement Error times: training period
Procedure: The animals were randomly divided into five groups: sham operation group, model group, piperphentonamine hydrochloride 1 mg/kg group, 2 mg/kg group, 4 mg/kg group. There were 10 mice in each group.
After the mice were fasted for 16 hours, we established the dementia model of mice caused by ischemia reperfusion. The preparatory steps were proceeded as follows: anesthetizing mouse by sodium pentobarbital (60 mg/kg, ip), supinely immobilizing on a board, incising on the midmost of neck, isolating bilateral common carotid artery, and threading with zero-size silk thread. Afterwards, operation steps were proceeded as follows: blocking the blood flow of bilateral common carotid artery for 10 min, then resuming the blood flow for 10 min, repeating the blocking/resuming steps for 3 times, and suturing the skin. The mice were put in normal feeding conditions. Bilateral common carotid artery is only isolated for sham operation group.
After ischemia reperfusion for 10 min, the drugs are injected on tail vein, after ischemia reperfusion for 24 h, administering for the second time. Carrying on the platform-diving experiment after administering for half an hour. The mice under test are put into the platform-diving instrument, adapting the environment for 3 min, and then the bottom plate being electrified, observing the time when the mouse jump onto the high platform (reaction time) and the times which the mouse jump down from the high platform and are shocked by electricity in 5 min (the number of errors in the training period). After 24 h, administering again, then carry on the second platform-diving experiment to measure the function of obtaining memory. Putting the mouse on the platform of experimental instrument, electrifying the bottom plate at the same time, recording the time when the mouse jump down from the high platform (latency) and the times which shock by electricity in 5 min (the times of error in test-retest period).

[6] = tested on: cultured cerebral neurons; assay: NMDA induces neuron injury in primary cultured neurons; format: cell-based, rat; conditions: 12 h; for mortality: NMDA 50 mmol/L
[7] = tested on: cerebral hemorrhage in rats induced by collagenase; assay: ICH model induced by collagenase: NO in brain tissue by nitrate reductase method; format: in vivo, Wistar rats
Excerpt: as §1, with “brain take” for “brains”, “content of NO by nitrate reductase” for “NE activity using ELISA”

SMILES: CN(CCC(=O)/C=C/c1ccc(O)cc1)CCc1ccc2c(c1)OCO2.Cl [piperphentonamine hydrochloride, Piperphentonamine hydrochloride]
- NE ([1]; 2 mg/kg, ICH rat brain tissue homogenate): 1.61 ± 0.044^a ng/ml
- brain tissue NE activity ([1]; high and low dose group (2, 0.5 mg/kg)): could decrease the brain tissue NE activity significantly
- IL-1β [2]: 318.4 ± 43.8^2)3) pg/g
- NO [2]: 86.1 ± 5.9^2)3) nmol/g
- TNF-α [2]: 499.7 ± 134.9^2)3) pg/g
- treating human brain and other diseases [3]: obvious effect and clinical significance
- brain water content (%) ([4]; 0.5 mg/kg iv 30 min before ICH, 4 h): 79.90 ± 0.84^Δ %
- brain water content (%) ([4]; 0.5 mg/kg iv 30 min before ICH, 8 h): 81.19 ± 0.78^ΔΔ %
- brain water content (%) ([4]; 0.5 mg/kg iv 30 min before ICH, 12 h): 82.70 ± 0.76^ΔΔ %
- brain water content (%) ([4]; 0.5 mg/kg iv 30 min before ICH, 24 h): 84.98 ± 0.65^ΔΔ %
- brain water content (%) ([4]; 2 mg/kg iv 30 min before ICH, 4 h): 79.29 ± 0.69 %
- brain water content (%) ([4]; 2 mg/kg iv 30 min before ICH, 8 h): 79.73 ± 0.53^Δ** %
- brain water content (%) ([4]; 2 mg/kg iv 30 min before ICH, 12 h): 80.75 ± 0.19^ΔΔ** %
- brain water content (%) ([4]; 2 mg/kg iv 30 min before ICH, 24 h): 82.38 ± 0.73^ΔΔ** %
- Learning achievement Reaction time s ([5]; 1 mg/kg tail vein): 16.53 ± 11.75 s
- memory achievement latency s ([5]; 1 mg/kg tail vein): 249.84 ± 133.55 s
- memory achievement Error times ([5]; 1 mg/kg tail vein): 1.31 ± 0.58
- Learning achievement Error times ([5]; 1 mg/kg tail vein): 5.37 ± 3.63
- Learning achievement Reaction time s ([5]; 2 mg/kg tail vein): 13.34 ± 8.85 s
- memory achievement latency s ([5]; 2 mg/kg tail vein): 308.13 ± 97.73 s
- memory achievement Error times ([5]; 2 mg/kg tail vein): 0.73 ± 0.58
- Learning achievement Error times ([5]; 2 mg/kg tail vein): 5.08 ± 3.34
- Learning achievement Reaction time s ([5]; 4 mg/kg tail vein): 7.11 ± 4.06 s
- memory achievement latency s ([5]; 4 mg/kg tail vein): 352.79 ± 141.5 s
- memory achievement Error times ([5]; 4 mg/kg tail vein): 0.58 ± 1.45
- Learning achievement Error times ([5]; 4 mg/kg tail vein): 4.5 ± 3.05
- mortality ([6]; drug 10 mmol/L, hydrochloride): 38%
- mortality ([6]; drug 10 mmol/L, listed as JBTA2, hydrochloride): 38%
- mortality ([6]; drug 100 mmol/L, hydrochloride): 24%
- mortality ([6]; drug 100 mmol/L, listed as JBTA2, hydrochloride): 24%
- morphological change of culture neuron ([6]; drug 10): the degree of cell injury reduces significantly
- NO ([7]; 2 mg/kg, ICH rat brain tissue): 1.65 ± 0.03^Δ μmol/g pro
- NO content in brain tissue ([7]; high and low dose groups (2, 0.5 mg/kg)): could decrease the NO content in brain tissue
